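All cell lines were grown in 96-well plates and treated with compound for 48 hours. GI50 marks 50% less growth. Definition used: TGI = concentration required for complete inhibition of growth.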
Experiments:
Assay in all cases: NCI tumour cell line growth inhibition, 48 h
K-562 leukemia = tested on: K-562 leukemia
SF-295 CNS = tested on: SF-295 CNS
A498 renal = tested on: A498 renal
786-0 renal = tested on: 786-0 renal
SK-MEL-5 melanoma = tested on: SK-MEL-5 melanoma
HCT-116 colon = tested on: HCT-116 colon
SR leukemia = tested on: SR leukemia
HCC-2998 colon = tested on: HCC-2998 colon
HL-60(TB) leukemia = tested on: HL-60(TB) leukemia
DMS 114 small cell lung = tested on: DMS 114 small cell lung
SNB-75 CNS = tested on: SNB-75 CNS
SF-268 CNS = tested on: SF-268 CNS
M14 melanoma = tested on: M14 melanoma
IGROV1 ovarian = tested on: IGROV1 ovarian
LOX IMVI melanoma = tested on: LOX IMVI melanoma
HT29 colon = tested on: HT29 colon
MOLT-4 leukemia = tested on: MOLT-4 leukemia
SK-MEL-2 melanoma = tested on: SK-MEL-2 melanoma
CAKI-1 renal = tested on: CAKI-1 renal
HOP-92 NSCLC = tested on: HOP-92 NSCLC
OVCAR-8 ovarian = tested on: OVCAR-8 ovarian
TK-10 renal = tested on: TK-10 renal
UO-31 renal = tested on: UO-31 renal
NCI-H226 lung = tested on: NCI-H226 lung
A549 NSCLC = tested on: A549 NSCLC
KM12 colon = tested on: KM12 colon
U251 CNS = tested on: U251 CNS
HOP-62 NSCLC = tested on: HOP-62 NSCLC
SK-OV-3 ovarian = tested on: SK-OV-3 ovarian
ACHN renal = tested on: ACHN renal
RPMI-8226 leukemia = tested on: RPMI-8226 leukemia
MALME-3M melanoma = tested on: MALME-3M melanoma
KM20L2 colon = tested on: KM20L2 colon
SN12C renal = tested on: SN12C renal
CCRF-CEM leukemia = tested on: CCRF-CEM leukemia
SNB-78 CNS = tested on: SNB-78 CNS
M19-MEL melanoma = tested on: M19-MEL melanoma
SK-MEL-28 melanoma = tested on: SK-MEL-28 melanoma
OVCAR-4 ovarian = tested on: OVCAR-4 ovarian
UACC-62 melanoma = tested on: UACC-62 melanoma
NCI-H522 lung = tested on: NCI-H522 lung
LXFL 529 NSCLC = tested on: LXFL 529 NSCLC
COLO 205 colon = tested on: COLO 205 colon
NCI-H23 lung = tested on: NCI-H23 lung
NCI-H460 lung = tested on: NCI-H460 lung
SF-539 CNS = tested on: SF-539 CNS
OVCAR-3 ovarian = tested on: OVCAR-3 ovarian
EKVX NSCLC = tested on: EKVX NSCLC
SW-620 colon = tested on: SW-620 colon
UACC-257 melanoma = tested on: UACC-257 melanoma
DLD-1 colon = tested on: DLD-1 colon
HCT-15 colon = tested on: HCT-15 colon
RXF-631 renal = tested on: RXF-631 renal
DMS 273 small cell lung = tested on: DMS 273 small cell lung
HOP-18 NSCLC = tested on: HOP-18 NSCLC
XF 498 CNS = tested on: XF 498 CNS
HS 578T breast = tested on: HS 578T breast
MDA-N = tested on: MDA-N
MCF7 breast = tested on: MCF7 breast
BT-549 breast = tested on: BT-549 breast
T-47D breast = tested on: T-47D breast
DU-145 prostate = tested on: DU-145 prostate
MDA-MB-231 breast = tested on: MDA-MB-231 breast
MDA-MB-435 = tested on: MDA-MB-435
PC-3 prostate = tested on: PC-3 prostate
NCI/ADR-RES ovarian = tested on: NCI/ADR-RES ovarian
RXF 393 renal = tested on: RXF 393 renal
OVCAR-5 ovarian = tested on: OVCAR-5 ovarian
SNB-19 CNS = tested on: SNB-19 CNS

CC(C)CN(CC(C)C)C(=O)C1CCCC[C@@H]1C(=O)O (stereo partly drawn)
TGI (K-562 leukemia): > 100 µM
TGI (SF-295 CNS): > 100 µM
TGI (A498 renal): > 100 µM
TGI (786-0 renal): > 100 µM
TGI (SK-MEL-5 melanoma): > 100 µM
TGI (HCT-116 colon): > 100 µM
TGI (SR leukemia): > 100 µM
TGI (HCC-2998 colon): > 100 µM
TGI (HL-60(TB) leukemia): > 100 µM
TGI (DMS 114 small cell lung): > 100 µM
TGI (SNB-75 CNS): > 100 µM
TGI (SF-268 CNS): > 100 µM
TGI (M14 melanoma): > 100 µM
TGI (IGROV1 ovarian): > 100 µM
TGI (LOX IMVI melanoma): > 100 µM
TGI (HT29 colon): > 100 µM
TGI (MOLT-4 leukemia): > 100 µM
TGI (SK-MEL-2 melanoma): > 100 µM
TGI (CAKI-1 renal): > 100 µM
TGI (HOP-92 NSCLC): > 100 µM
TGI (OVCAR-8 ovarian): > 100 µM
TGI (TK-10 renal): > 100 µM
TGI (UO-31 renal): > 100 µM
TGI (NCI-H226 lung): > 100 µM
TGI (A549 NSCLC): > 100 µM
TGI (KM12 colon): > 100 µM
TGI (U251 CNS): > 100 µM
TGI (HOP-62 NSCLC): > 100 µM
TGI (SK-OV-3 ovarian): > 100 µM
TGI (ACHN renal): > 100 µM
TGI (RPMI-8226 leukemia): > 100 µM
TGI (MALME-3M melanoma): > 100 µM
TGI (KM20L2 colon): > 100 µM
TGI (SN12C renal): > 100 µM
TGI (CCRF-CEM leukemia): > 100 µM
TGI (SNB-78 CNS): > 100 µM
TGI (M19-MEL melanoma): > 100 µM
TGI (SK-MEL-28 melanoma): > 100 µM
TGI (OVCAR-4 ovarian): > 100 µM
TGI (UACC-62 melanoma): > 100 µM
TGI (NCI-H522 lung): > 100 µM
TGI (LXFL 529 NSCLC): > 100 µM
TGI (COLO 205 colon): > 100 µM
TGI (NCI-H23 lung): > 100 µM
TGI (NCI-H460 lung): > 100 µM
TGI (SF-539 CNS): > 100 µM
TGI (OVCAR-3 ovarian): > 100 µM
TGI (EKVX NSCLC): > 100 µM
TGI (SW-620 colon): > 100 µM
TGI (UACC-257 melanoma): > 100 µM
TGI (DLD-1 colon): > 100 µM
TGI (HCT-15 colon): > 100 µM
TGI (RXF-631 renal): > 100 µM
TGI (DMS 273 small cell lung): > 100 µM
TGI (HOP-18 NSCLC): > 100 µM

CC1(C)CC(Nc2ccc(Nc3ccccc3)cc2)CC(C)(C)N1
TGI (XF 498 CNS): > 54.2 µM
TGI (K-562 leukemia): 39.2 µM
TGI (SF-295 CNS): > 95.3 µM
TGI (A498 renal): 55.3 µM
TGI (786-0 renal): 49.2 µM
TGI (HS 578T breast): 48.8 µM
TGI (SK-MEL-5 melanoma): 30.5 µM
TGI (MDA-N): 32.7 µM
TGI (HCT-116 colon): 62.3 µM
TGI (SR leukemia): 50.2 µM
TGI (HCC-2998 colon): 32.7 µM
TGI (HL-60(TB) leukemia): 19.2 µM
TGI (DMS 114 small cell lung): 42.9 µM
TGI (MCF7 breast): 33.5 µM
TGI (SNB-75 CNS): > 100 µM
TGI (SF-268 CNS): > 85.4 µM
TGI (M14 melanoma): 34.7 µM
TGI (BT-549 breast): 27 µM
TGI (IGROV1 ovarian): 78.6 µM
TGI (T-47D breast): 37.5 µM
TGI (LOX IMVI melanoma): 43.1 µM
TGI (DU-145 prostate): 61.1 µM
TGI (MDA-MB-231 breast): 32.4 µM
TGI (HT29 colon): 50.7 µM
TGI (MOLT-4 leukemia): 53.7 µM
TGI (SK-MEL-2 melanoma): 52.9 µM
TGI (CAKI-1 renal): 53.1 µM
TGI (HOP-92 NSCLC): 33.9 µM
TGI (OVCAR-8 ovarian): 66.3 µM
TGI (TK-10 renal): 48.5 µM
TGI (MDA-MB-435): 33.6 µM
TGI (UO-31 renal): 24.6 µM
TGI (NCI-H226 lung): 40.8 µM
TGI (A549 NSCLC): > 86.2 µM
TGI (KM12 colon): 71.2 µM
TGI (PC-3 prostate): 32.3 µM
TGI (U251 CNS): 40.1 µM
TGI (HOP-62 NSCLC): 77.3 µM
TGI (SK-OV-3 ovarian): > 100 µM
TGI (NCI/ADR-RES ovarian): 66.9 µM
TGI (ACHN renal): 37.2 µM
TGI (RPMI-8226 leukemia): 37.3 µM
TGI (MALME-3M melanoma): 35.8 µM
TGI (KM20L2 colon): > 78.6 µM
TGI (SN12C renal): 80.6 µM
TGI (CCRF-CEM leukemia): 29.9 µM
TGI (SNB-78 CNS): > 100 µM
TGI (M19-MEL melanoma): > 94.2 µM
TGI (SK-MEL-28 melanoma): 33.8 µM
TGI (RXF 393 renal): 47.5 µM
TGI (OVCAR-4 ovarian): 61.9 µM
TGI (UACC-62 melanoma): 28.1 µM
TGI (NCI-H522 lung): 26.6 µM
TGI (LXFL 529 NSCLC): > 56.8 µM
TGI (COLO 205 colon): 32.5 µM
TGI (NCI-H23 lung): 63.7 µM
TGI (NCI-H460 lung): 64 µM
TGI (SF-539 CNS): 41.9 µM
TGI (OVCAR-5 ovarian): > 63.1 µM
TGI (OVCAR-3 ovarian): 41.8 µM
TGI (SNB-19 CNS): > 80.7 µM
TGI (EKVX NSCLC): 81.4 µM
TGI (SW-620 colon): 49 µM
TGI (UACC-257 melanoma): 23.9 µM
TGI (DLD-1 colon): > 100 µM
TGI (HCT-15 colon): 70.4 µM
TGI (RXF-631 renal): > 31.6 µM
TGI (DMS 273 small cell lung): > 100 µM
TGI (HOP-18 NSCLC): > 100 µM

CSc1ncnc2c1CCN2
GI50 (SF-295 CNS): > 100 µM
TGI (SF-295 CNS): > 100 µM
GI50 (786-0 renal): > 100 µM
TGI (786-0 renal): > 100 µM
GI50 (SK-MEL-5 melanoma): > 100 µM
TGI (SK-MEL-5 melanoma): > 100 µM
TGI (MDA-N): 8.6 µM
GI50 (HCT-116 colon): > 100 µM
TGI (HCT-116 colon): > 100 µM
GI50 (HCC-2998 colon): > 100 µM
TGI (HCC-2998 colon): > 100 µM
TGI (DMS 114 small cell lung): > 100 µM
GI50 (SF-268 CNS): > 100 µM
TGI (SF-268 CNS): > 100 µM
GI50 (M14 melanoma): > 100 µM
TGI (M14 melanoma): > 100 µM
GI50 (IGROV1 ovarian): > 100 µM
TGI (IGROV1 ovarian): > 100 µM
GI50 (LOX IMVI melanoma): > 100 µM
TGI (LOX IMVI melanoma): > 100 µM
GI50 (HT29 colon): > 100 µM
TGI (HT29 colon): > 100 µM
GI50 (SK-MEL-2 melanoma): > 100 µM
TGI (SK-MEL-2 melanoma): > 100 µM
GI50 (HOP-92 NSCLC): 75 µM
TGI (HOP-92 NSCLC): > 100 µM
GI50 (OVCAR-8 ovarian): > 100 µM
TGI (OVCAR-8 ovarian): > 100 µM
GI50 (TK-10 renal): > 100 µM
TGI (TK-10 renal): > 100 µM
TGI (MDA-MB-435): 6.04 µM
TGI (UO-31 renal): > 100 µM
GI50 (A549 NSCLC): > 100 µM
TGI (A549 NSCLC): > 100 µM
GI50 (KM12 colon): > 100 µM
TGI (KM12 colon): > 100 µM
TGI (HOP-62 NSCLC): > 100 µM
GI50 (SK-OV-3 ovarian): > 100 µM
TGI (SK-OV-3 ovarian): > 100 µM
GI50 (MALME-3M melanoma): > 100 µM
TGI (MALME-3M melanoma): > 100 µM
TGI (SN12C renal): > 100 µM
TGI (SNB-78 CNS): > 100 µM
TGI (M19-MEL melanoma): > 100 µM
GI50 (SK-MEL-28 melanoma): > 100 µM
TGI (SK-MEL-28 melanoma): > 100 µM
GI50 (UACC-62 melanoma): > 100 µM
TGI (UACC-62 melanoma): > 100 µM
GI50 (NCI-H522 lung): > 100 µM
TGI (LXFL 529 NSCLC): > 100 µM
GI50 (COLO 205 colon): > 100 µM
TGI (COLO 205 colon): > 100 µM
GI50 (NCI-H23 lung): > 100 µM
TGI (NCI-H23 lung): > 100 µM
GI50 (OVCAR-3 ovarian): > 100 µM
GI50 (SNB-19 CNS): > 100 µM
TGI (SNB-19 CNS): > 100 µM
GI50 (EKVX NSCLC): > 100 µM
TGI (EKVX NSCLC): > 100 µM
GI50 (SW-620 colon): > 100 µM
TGI (SW-620 colon): > 100 µM
GI50 (UACC-257 melanoma): > 100 µM
TGI (UACC-257 melanoma): > 100 µM
TGI (HCT-15 colon): > 100 µM
